Assay results as given in patent publication US12479804B2, “Herbicidal compounds” (SYNGENTA CROP PROTECTION AG, priority 2019, dated 2025).

Tests used:
Assay in all cases: Glasshouse herbicidal test, pre- and post-emergence, percentage damage to the plant
Type in all cases: in vivo
[1] = system: Alopecurus myosuroides (ALOMY); conditions: 250 g/h, evaluated after 13 days; for ALOMY POST percentage damage caused to the plant (five-point scale): post-emergence; for ALOMY PRE percentage damage caused to the plant (five-point scale): pre-emergence
Procedure: (§1) Seeds of a variety of test species are sown in standard soil in pots (Lolium perenne (LOLPE), Setaria faberi (SETFA), Alopecurus myosuroides (ALOMY), Echinochloa crus-galli (ECHCG), Avena fatua (AVEFA)). After cultivation for one day (pre-emergence) or after 8 days cultivation (post-emergence) under controlled conditions in a glasshouse (at 24/16° C., day/night; 14 hours light; 65% humidity), the plants are sprayed with an aqueous spray solution derived from the formulation of the technical active ingredient in acetone/water (50:50) solution containing 0.5% Tween 20 (polyoxyethelyene sorbitan monolaurate, CAS RN 9005-64-5). Compounds are applied at 250 g/h. The test plants are then grown in a glasshouse under controlled conditions in a glasshouse (at 24/16° C., day/night; 14 hours light; 65% humidity) and watered twice daily. After 13 days for pre and post-emergence, the test is evaluated for the percentage damage caused to the plant. The biological activities are shown in the following table on a five-point scale (5=80-100%; 4=60-79%; 3=40-59%; 2=20-39%; 1=0-19%).

Avena fatua (AVEFA) = conditions: 250 g/h, evaluated after 13 days; for AVEFA POST percentage damage caused to the plant (five-point scale): post-emergence; for AVEFA PRE percentage damage caused to the plant (five-point scale): pre-emergence
Procedure: as §1

[2] = system: Echinochloa crus-galli (ECHCG); conditions: 250 g/h, evaluated after 13 days; for ECHCG POST percentage damage caused to the plant (five-point scale): post-emergence; for ECHCG PRE percentage damage caused to the plant (five-point scale): pre-emergence
Procedure: as §1

Lolium perenne (LOLPE) = conditions: 250 g/h, evaluated after 13 days; for LOLPE POST percentage damage caused to the plant (five-point scale): post-emergence; for LOLPE PRE percentage damage caused to the plant (five-point scale): pre-emergence
Procedure: as §1

Setaria faberi (SETFA) = conditions: 250 g/h, evaluated after 13 days; for SETFA POST percentage damage caused to the plant (five-point scale): post-emergence; for SETFA PRE percentage damage caused to the plant (five-point scale): pre-emergence
Procedure: as §1

CC#Cc1cc(C)c(C2C(=O)CC3(C=CN(S(=O)(=O)CC)CC3)CC2=O)c(C)c1 (stereo not drawn) [Compound A55]
5 (5=80-100%): ALOMY POST percentage damage caused to the plant (five-point scale) [1] | ALOMY PRE percentage damage caused to the plant (five-point scale) [1] | AVEFA POST percentage damage caused to the plant (five-point scale) (Avena fatua (AVEFA)) | AVEFA PRE percentage damage caused to the plant (five-point scale) (Avena fatua (AVEFA)) | ECHCG POST percentage damage caused to the plant (five-point scale) [2] | ECHCG PRE percentage damage caused to the plant (five-point scale) [2] | LOLPE POST percentage damage caused to the plant (five-point scale) (Lolium perenne (LOLPE)) | LOLPE PRE percentage damage caused to the plant (five-point scale) (Lolium perenne (LOLPE)) | SETFA POST percentage damage caused to the plant (five-point scale) (Setaria faberi (SETFA)) | SETFA PRE percentage damage caused to the plant (five-point scale) (Setaria faberi (SETFA))

CC#Cc1cc(C)c(C2C(=O)CC3(CCN(C(C)=O)C(C)C3)CC2=O)c(C)c1 (stereo not drawn) [Compound A58]
5 (5=80-100%): ALOMY POST percentage damage caused to the plant (five-point scale) [1] | ALOMY PRE percentage damage caused to the plant (five-point scale) [1] | AVEFA POST percentage damage caused to the plant (five-point scale) (Avena fatua (AVEFA)) | AVEFA PRE percentage damage caused to the plant (five-point scale) (Avena fatua (AVEFA)) | ECHCG POST percentage damage caused to the plant (five-point scale) [2] | ECHCG PRE percentage damage caused to the plant (five-point scale) [2] | LOLPE POST percentage damage caused to the plant (five-point scale) (Lolium perenne (LOLPE)) | LOLPE PRE percentage damage caused to the plant (five-point scale) (Lolium perenne (LOLPE)) | SETFA POST percentage damage caused to the plant (five-point scale) (Setaria faberi (SETFA)) | SETFA PRE percentage damage caused to the plant (five-point scale) (Setaria faberi (SETFA))

CC#Cc1cc(C)c(C2C(=O)CC3(CCNC(=O)C3)CC2=O)c(C)c1 (stereo not drawn) [Compound A2]
4 (4=60-79%): AVEFA POST percentage damage caused to the plant (five-point scale) (Avena fatua (AVEFA)) | LOLPE POST percentage damage caused to the plant (five-point scale) (Lolium perenne (LOLPE)) | LOLPE PRE percentage damage caused to the plant (five-point scale) (Lolium perenne (LOLPE))
3 (3=40-59%): ALOMY POST percentage damage caused to the plant (five-point scale) [1] | ALOMY PRE percentage damage caused to the plant (five-point scale) [1] | AVEFA PRE percentage damage caused to the plant (five-point scale) (Avena fatua (AVEFA)) | ECHCG PRE percentage damage caused to the plant (five-point scale) [2]
5 (5=80-100%): ECHCG POST percentage damage caused to the plant (five-point scale) [2] | SETFA POST percentage damage caused to the plant (five-point scale) (Setaria faberi (SETFA)) | SETFA PRE percentage damage caused to the plant (five-point scale) (Setaria faberi (SETFA))

CC#Cc1cc(C)c(C2C(=O)CC3(CCN4C(=O)CCC4C3)CC2=O)c(C)c1 (stereo not drawn) [Compound A14]
5 (5=80-100%): ALOMY POST percentage damage caused to the plant (five-point scale) [1] | ALOMY PRE percentage damage caused to the plant (five-point scale) [1] | AVEFA POST percentage damage caused to the plant (five-point scale) (Avena fatua (AVEFA)) | AVEFA PRE percentage damage caused to the plant (five-point scale) (Avena fatua (AVEFA)) | ECHCG POST percentage damage caused to the plant (five-point scale) [2] | ECHCG PRE percentage damage caused to the plant (five-point scale) [2] | LOLPE POST percentage damage caused to the plant (five-point scale) (Lolium perenne (LOLPE)) | LOLPE PRE percentage damage caused to the plant (five-point scale) (Lolium perenne (LOLPE)) | SETFA POST percentage damage caused to the plant (five-point scale) (Setaria faberi (SETFA)) | SETFA PRE percentage damage caused to the plant (five-point scale) (Setaria faberi (SETFA))

CC#Cc1cc(C)c(C2C(=O)CC3(C=CN(C(=O)c4ccccn4)CC3)CC2=O)c(C)c1 (stereo not drawn) [Compound A48]
5 (5=80-100%): ALOMY POST percentage damage caused to the plant (five-point scale) [1] | ALOMY PRE percentage damage caused to the plant (five-point scale) [1] | AVEFA POST percentage damage caused to the plant (five-point scale) (Avena fatua (AVEFA)) | AVEFA PRE percentage damage caused to the plant (five-point scale) (Avena fatua (AVEFA)) | ECHCG POST percentage damage caused to the plant (five-point scale) [2] | ECHCG PRE percentage damage caused to the plant (five-point scale) [2] | LOLPE POST percentage damage caused to the plant (five-point scale) (Lolium perenne (LOLPE)) | LOLPE PRE percentage damage caused to the plant (five-point scale) (Lolium perenne (LOLPE)) | SETFA POST percentage damage caused to the plant (five-point scale) (Setaria faberi (SETFA)) | SETFA PRE percentage damage caused to the plant (five-point scale) (Setaria faberi (SETFA))

CC#Cc1cc(C)c(C2C(=O)CC3(C=CN(C(=O)COC)CC3)CC2=O)c(C)c1 (stereo not drawn) [Compound A15]
5 (5=80-100%): ALOMY POST percentage damage caused to the plant (five-point scale) [1] | ALOMY PRE percentage damage caused to the plant (five-point scale) [1] | AVEFA POST percentage damage caused to the plant (five-point scale) (Avena fatua (AVEFA)) | AVEFA PRE percentage damage caused to the plant (five-point scale) (Avena fatua (AVEFA)) | ECHCG POST percentage damage caused to the plant (five-point scale) [2] | ECHCG PRE percentage damage caused to the plant (five-point scale) [2] | LOLPE POST percentage damage caused to the plant (five-point scale) (Lolium perenne (LOLPE)) | LOLPE PRE percentage damage caused to the plant (five-point scale) (Lolium perenne (LOLPE)) | SETFA POST percentage damage caused to the plant (five-point scale) (Setaria faberi (SETFA)) | SETFA PRE percentage damage caused to the plant (five-point scale) (Setaria faberi (SETFA))
